Results as given in US20240009157A1 (PriZm, LLC, priority 2022, published 2024).

Key:
[1] = test system: MCT8 mutant (mct8−/−) zebrafish; conditions: cited from earlier work
[2] = test system: pediatric patient suffering from Allan-Herndon-Dudley Syndrome; test: Dosing regimen for a pediatric subject, T3 serum levels; format: in vivo, human
Protocol: Following the first 2 weeks, the daily dosage was increased to 2 mg/kg/day for 2 additional weeks. […] Following the first 2 weeks, the daily dosage was increased to 2 mg/kg/day for 2 additional weeks. […] Following the first 2 weeks, the daily dosage was increased to 2 mg/kg/day for 2 additional weeks.

child having a G-tube = test: Effect of DITPA on removal of G-tube; format: in vivo, human; conditions: one child who started DITPA while having a G-tube
[3] = test system: MCT8-deficient (knockout) mice (Mct8KO); conditions: cited from earlier work
[4] = ambient temperature and light; cited from earlier work
pediatric subjects = conditions: human, in vivo; cited from earlier work

| Compound | hypomyelination in the CNS [1] | T3 serum levels above normal ([2]; 1 mg/kg/day for 2 weeks, then 2 mg/kg/day for 2 additional weeks, above normal) | T3 serum levels below normal ([2]; 1 mg/kg/day for 2 weeks, then 2 mg/kg/day for 2 additional weeks, below normal) | T3 serum levels upon reassessment ([2]; after 1.0 mg/kg/day for 28 days) | T3 serum levels upon reassessment ([2]; after 1.5 mg/kg/day for 28 days) | T3 serum levels upon reassessment, below normal ([2]; after 1.5 mg/kg/day for 28 days, below normal) | T3 serum levels upon reassessment ([2]; after 2.5 mg/kg/day for 28 days) | G-tube (child having a G-tube) | body weight (child having a G-tube) | MCT8 dependence of entry into the brain [3] | TH deficit [3] | measurements and other parameters of TH action [3] | thyrotoxic effect in the liver [3] | thyrotoxic state in the liver (analysis of TH target genes) [3] | stability [4] | effects in pediatric subjects (pediatric subjects) |
| --- | --- | --- | --- | --- | --- | --- | --- | --- | --- | --- | --- | --- | --- | --- | --- | --- |
| O=C(O)CCc1cc(I)c(Oc2ccc(O)cc2)c(I)c1 [DITPA, 3,5-diiodothyropropionic acid] | SRW101 and other TH analogs partially rescued the hypomyelination | more than 15% | more than 15% | normal | normal | more than 15% | normal | g-tube was removed | gained weight | independent for entry into the brain | corrects the TH deficit | showed that SRW101 normalized all measurements and other | Mct8KO mice without causing thyrotoxic effect in the liver (Di | amelioration of the thyrotoxic state in the liver (ameliorating | stable at ambient temperature and light |  |
| O=C(O)Cc1cc(I)c(Oc2ccc(O)c(I)c2)c(I)c1 [TRIAC, triiodothyroacetic acid] |  |  |  |  |  |  |  |  |  |  |  |  |  |  |  | subjects with positive effects. |
